This is an account of results in patent publication US5840893A, “Compounds for treating infectious diseases” (priority 1996, dated 1998).

“Also recorded” adds a separate entry of the source.

One data set deals with HIV-1. In words: AZT and Compound No. 2 in combination on HIV-1 infected monocyte cultures (RT activity). Format: cell-based, HIV-1 in human monocyte cultures. As to conditions: for RT activity: 100 nM Compound No. 2, AZT 0. As for the experimental part: Primary human monocytes were obtained from peripheral blood by Ficoll-Hypaque centrifugation and adherence to plastic as described previously. Gartner S. P., et al., 1986, Science 233:215. Briefly, after Ficoll-Hypaque (Pharmacia) separation, PBMCs were washed 4 times with DMEM (the last wash was done at 800 rpm to remove platelets) and resuspended in monocyte culture medium [DMEM supplemented with 1 mM glutamine, 10% heat-inactivated human serum, 1% penicillin+streptomycin mixture (Sigma)] at a density of 6×10^6 cells/ml. Cells were seeded in 24-well plates (1 ml per well) and incubated for 2 h at 37° C., 5% CO2. Following incubation, cells were washed 3 times with DMEM to remove non-adherent cells and incubation was continued in monocyte culture medium supplemented with 250 U/ml human M-CSF (Sigma). Cells were allowed to mature for 7 days prior to infection with the monocyte-tropic strain, HIV-1ADA. Nuovo, G. J., et al., 1992, Diagn. Mol. Pathol. 1:98. Two hours after infection, cells were washed with medium and cultured in RPMI supplemented with 10% human serum. In experiments where PCR analysis was performed, virus was pretreated with RNAse-free DNAse (Boehinger-Mannheim)for 2 h at room temperature and then filtered though a 0.2 μm pore nitrocellulose filter prior to infection.
(§1) For the reverse transcriptase (RT) assay, 10 μl of culture supernatant was added to 40 μl of reaction mixture (final composition was 50 mM Tris-HCl, pH 7.8; 20 mM KCl; 5 mM MgCl2; 1 mM DTT; 0.1% Triton X-100; 0.2 OD/ml polyA; 0.2 OD/ml oligo(dT)12-18; and 40 μCi/ml ^3 H-dTTP (76 Ci/mmol, DuPont) and incubated 2 hr at 37° C. 5 μl of the reaction mixture was then spotted onto the DE 81 (Whatman) paper. Paper was air dried and washed 5 times with 5% Na2 HPO4, followed by rinsing with distilled water. After air drying, paper was put on a Flexi Filter plate (Packard), covered with scintillation fluid and counted in a Top Count Microplate Counter (Packard). Results are expressed as counts per minute in 1 ml of supernatant (cpm/ml).
In view of these premises, the effects on HIV-1 replication in human monocyte cultures of the various concentrations of AZT, alone or in combination with 100 nM Compound No. 2, were tested using the protocols of Sections 6.2.1 and 6.2.2. Drugs were added to the monocyte cultures together with HIV-1 at about 10^5 TCID/ml. The concentration of drugs was maintained on refeeding. HIV-1 replication was assessed by assay of the supernatant for reverse transcriptase activity. The results are expressed as mean±std. dev. (cpmx10^-3) in Table V.

The subject of a further data set is HIV-1ADA. Nature of the data set: RT activity in supernatant of HIV-1ADA-infected mitogen-stimulated peripheral blood leukocytes. Format: cell-based, HIV-1ADA in human PBMC. As for the experimental part: PBMCs were purified by Ficoll-Hypaque centrifugation and activated by 10 μg/ml PHA-P (Sigma) and 20 U/ml recombinant human IL-2 (rhIL-2) in RPMI 1640 supplemented with 10% FBS (HyClone). After 24 h incubation, cells were washed and inoculated with HIV-1ADA in RPMI 1640 supplemented with 10% FBS. After a 2 h adsorption, free virus was washed away and cells were cultured in RPMI 1640 supplemented with 10% FBS and 20 U/ml rhIL-2.
as §1

Data set [1] deals with nuclear importation of HIV-1 preintegration complexes. In words: Nuclear importation of HIV-1 preintegration complexes (2-LTR circle PCR) in primary human monocytes. Format: cell-based, HIV-1ADA in primary human monocytes. Particulars: Monocyte, 100 nM, 48 and 96 hours post infection. An excerpt: The effects of Compound No. 2 on the nuclear importation of HIV-1 preintegration complexes can be directly measured by detecting the presence of circularized duplex HIV-1 genomic DNA. These duplex circles can be readily detected by PCR amplification using primers which span the junction of the circularized HIV-1 genome. Bukrinsky, M. I., et al., 1992, Proc.Natl.Acad.Sci. 89:6580-84.
Briefly, the efficiency of nuclear translocation was estimated by the ratio between the 2-LTR- and pol-specific PCR products, which reflects the portion of 2-LTR circle DNA molecules as a fraction of the entire pool of intracellular HIV-1 DNA. Viral 2-LTR circle DNA is formed exclusively within the nucleus of infected cells and thus is a convenient marker of successful nuclear translocation. […]
Total DNA was extracted from HIV-1-infected cells using the IsoQuick extraction kit (Microprobe Corp., Garden Grove, Calif.). DNA was then analyzed by PCR using primer pairs that amplify the following sequences: a fragment of HIV-1 (LTR/gag) that is the last one to be synthesized during reverse transcription and therefore represents the pool of full-length viral DNA molecules; a fragment of polymerase gene (pol); a 2-LTR junction region found only in HIV-1 2-LTR circle DNA molecules; or a fragment of the cellular a-tubulin gene. […]

The test system of a further data set is monocyte cultures. In words: Cytotoxicity in monocyte cultures (LDH release, trypan blue exclusion). Format: cell-based, human. Particulars: up to 10 μM; LDH release and trypan blue exclusion.

Turning to `CC(=O)c1cc(Nc2cc(C)[n+](C)c(N)n2)cc(C(C)=O)c1.[I-]` [Compound No. 2, 2-amino-4-(3,5-diacetylphenyl)amino-1,6-dimethylpyrimidinium iodide], the inhibition at 0.1 µM with HIV-1 (Human immunodeficiency virus 1, Monocyte, 264 h, day-11, 100 nM Compound No. 2 alone, read-out: reduction in RT activity) is ~60%; in data set [1] it was > 90%. Besides, the RT activity is 0.37 ± 0.07 cpmx10^-3 in the data set with HIV-1 (day-7) and 0.72 ± 0.30 cpmx10^-3 in the data set on HIV-1 (day-11). For the same compound, in the data set on HIV-1ADA (1 and 10 μM, lower MOI (1 ng p24/10^6 cells), FIG. 3B), the “reduction in viral output” value is ~2 fold. In addition, the “anti-viral effect on activated PBLs / replicating cells” value in the data set on HIV-1ADA (actively dividing cell populations, FIG. 3) was “much less expressed in these actively dividing cell populations; also recorded: No anti-viral effect was detected”. Besides, the “effect on viral production” value with HIV-1ADA (up to 10 μM, higher MOI (10 ng p24/10^6 cells), FIG. 3A) was “only a marginal effect on viral production”. The activity at 0.1 µM in data set [1] (relative to drug free control, read-out: Translocation Index) is < 10%. Besides, the cytotoxic effect result in the data set on monocyte cultures is “without toxic effects; also recorded: no cytotoxic effect was observed”.
